Test results: BindingDB's records for doi:10.1016/s0960-894x(02)00934-4 (Southern Research Institute, 2003)

Experiment: Antagonist activity on agonist stimulated [35S]GTP-gamma-S, binding in guinea pig caudate membranes (10 uM SNC-80 as the agonist ligand for delta-receptor)

| Compound | Ki |
| --- | --- |
| Oc1ccc2c3c1O[C@H]1c4ncc(-n5cccc5)cc4C[C@@]4(O)[C@@H](C2)N(CC2CC2)CC[C@]314 [19-cyclopropylmethyl-6-(1H-1-pyrrolyl)-11-oxa-8,19-diazahexacyclo[10.9.1.01,10.02,18.04,9.016,22]docosa-4(9),5,7,12,14,16(22)-hexaene-2,13-diol] | 0.4 nM |
| NC(N)=Nc1cnc2c(c1)C[C@@]1(O)[C@H]3Cc4ccc(O)c5c4[C@@]1(CCN3CC1CC1)[C@H]2O5 [6-amino(imino)methylamino-19-cyclopropylmethyl-11-oxa-8,19-diazahexacyclo[10.9.1.01,10.02,18.04,9.016,22]docosa-4(9),5,7,12,14,16(22)-hexaene-2,13-diol; ditrifluoracetic acid] | 6.5 nM |
